Bounds are passed on as bounds.

In data set [1] the test system is intestinal transit across the proximal gut. The experiment in a line: Intestinal transit in dogs with duodenal and midgut fistulas. It counts as in vivo. The settings on record: last 30 min of 90-min perfusion, mean±SE, buffer control 53.77±5.96%. The method, then: The inventor determined the effect of hydrogen sulfide on intestinal transit. Five dogs were equipped with duodenal and midgut fistulas. With occluding Foley catheters in the distal limb of the 2 fistulas, the small intestine was compartmentalized into the proximal and distal ½ of the gut. The proximal gut was perfused with pH 7.0 phosphate buffer with 0 or 1 mM NaHS (a donor of H2S) at 2 ml/min while the distal gut was perfused with pH 7.0 phosphate buffer with 0 or 60 mM oleate at 2 ml/min for 90 minutes. 60 mM oleate was used to trigger the ileal brake response to slow intestinal transit. Intestinal transit across the proximal gut was measured by the cumulative % recovery of a radioactive marker out of the midgut fistula during the last 30 min of the 90-min perfusion (data=mean±SE).

The conditions of data set [2]: inhaled; cited from earlier work.
The conditions of data set [3]: rat model of HPS, chronic bile duct ligation; cited from earlier work.
The conditions of data set [4]: single patient with HPS, enhanced oxygenation; cited from earlier work.
Data set [5] deals with gut bacteria. Particulars: Norfloxacin treatment; cited from earlier work.
The conditions of data set [6]: 100 patients, mild to moderate AD, doxycycline and rifampin together; cited from earlier work.
Data set [7] has as its system SIBO. The settings on record: about 400 mg TID for about 10 days; cited from earlier work.

Take `S` [Hydrogen sulfide]: the “Intestinal transit: cumulative % recovery of a radioactive marker out of the midgut fistula” value in data set [1] (H2S perfused in distal compartment) was 60.72±8.97%; in data set [1] (H2S perfused in proximal compartment (1 mM NaHS, pH 7.0 phosphate buffer, 2 ml/min)), 37.78±3.80%. In addition, in data set [2], the “level that can be fatal (respiratory failure and pulmonary edema)” value was more than 600 ppm.
Turning to `COC(=O)[C@@H](N)CCCNC(=N)N[N+](=O)[O-]` [L-NAME, nomega-nitro-L-arginine methylester], the hypoxia entry in data set [3] was “improved but did not correct hypoxia”. Moreover, the extra walking distance in data set [4] is recorded as 92 M.
As for `CCn1cc(C(=O)O)c(=O)c2cc(F)c(N3CCNCC3)cc21` [Norfloxacin], in data set [5], the iNOS expression result is “normalized” and the “severity of intrapulmonary vascular dilatation, reduction” value is “about ½”.
In the case of `CCCCCCCC/C=C\CCCCCCCC(=O)O` [fat, oleate], in data set [1] (fat (60 mM oleate) in distal 1/2 of gut, ileal brake), the “Intestinal transit: cumulative % recovery of a radioactive marker out of the midgut fistula” value was 16.00±3.92%.
As for `CO[C@H]1/C=C/O[C@@]2(C)Oc3c(C)c(O)c4c(O)c(c(/C=N/N5CCN(C)CC5)c(O)c4c3C2=O)NC(=O)/C(C)=C\C=C\[C@H](C)[C@H](O)[C@@H](C)[C@@H](O)[C@@H](C)[C@H](OC(C)=O)[C@@H]1C` [rifampin], the cognitive worsening entry in data set [6] was “reduce cognitive worsening”.
Consider `CO[C@H]1/C=C/O[C@@]2(C)Oc3c(C)c(O)c4c(O)c(c5c(nc6cc(C)ccn65)c4c3C2=O)NC(=O)/C(C)=C\C=C\[C@H](C)[C@H](O)[C@@H](C)[C@@H](O)[C@@H](C)[C@H](OC(C)=O)[C@@H]1C` [rifaximin], for which, in data set [7], the “efficacy in achieving successful partial eradication of SIBO” value was 60-70%.

These data come from patent US20090233888A1, “TREATMENT OF DISEASE CONDITIONS THROUGH MODULATION OF HYDROGEN SULFIDE PRODUCED BY SMALL INTESTINAL BACTERIAL OVERGROWTH” (priority 2005, published 2009).
